From patent US20250026752A1, “POSITIVE ALLOSTERIC MODULATORS OF THE MUSCARINIC ACETYLCHOLINE RECEPTOR M4” (Vanderbilt University, priority 2021, published 2025)

Target: T1, human mAChR M4 (Homo sapiens, UniProt P08173)
T1 construct: expressed in transfected cells; host or cells: CHO-K1 (ATCC), stably expressing hM4 and Gqi5
T1 sequence (P08173 1-479): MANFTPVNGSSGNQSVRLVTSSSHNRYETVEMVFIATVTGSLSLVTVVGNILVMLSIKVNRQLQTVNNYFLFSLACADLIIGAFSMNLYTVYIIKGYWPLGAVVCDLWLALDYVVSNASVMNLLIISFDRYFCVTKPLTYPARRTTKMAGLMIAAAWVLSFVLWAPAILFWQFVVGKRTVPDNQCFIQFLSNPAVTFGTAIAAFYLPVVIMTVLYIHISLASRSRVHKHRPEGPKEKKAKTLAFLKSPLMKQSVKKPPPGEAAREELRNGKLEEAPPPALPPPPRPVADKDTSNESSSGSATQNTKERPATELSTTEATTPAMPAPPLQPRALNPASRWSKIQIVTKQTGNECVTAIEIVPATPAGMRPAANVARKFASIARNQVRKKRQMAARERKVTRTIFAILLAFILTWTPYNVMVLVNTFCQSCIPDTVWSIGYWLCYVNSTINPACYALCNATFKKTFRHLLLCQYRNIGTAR
Experiment: mAChR M4 cell-based functional assay: calcium flux (Fluo-4, FDSS), positive allosteric modulator activity on the EC20 acetylcholine response, hM4-Gqi5 CHO-K1 cells
Conditions: for Emax at 30 µM: CHO-K1, human M4, % ACh maximum at 30 μM; for EC50: human M4, PAM activity on EC20 acetylcholine response, calcium flux, read-out: Human M4 EC50
Method in brief: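 Potentiation was taken as the concentration-dependent rise in the EC20 acetylcholine calcium response, fitted by a four-parameter logistic with EC20 as baseline. Fluo-4-loaded hM4-Gqi5 CHO-K1 cells received 11-point, threefold-diluted compound before acetylcholine at 144 s; FDSS read at 1 Hz.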

Emax at 30 µM [%]	EC50 [nM]	SMILES
84	1700	Cc1nc(N2CCc3ncc(N4CCO[C@H](c5ccccc5)C4)cc3C2)c2cc(F)ccc2n1 [Compound 217, (R)-4-(6-(6-fluoro-2-methylquinazolin-4-yl)-5,6,7,8-tetrahydro-1,6-naphthyridin-3-yl)-2-phenylmorpholine]
73	570	Cc1nn(-c2cnc3c(c2)CN(c2ncnc4ccc(F)cc24)CC3)c2cccnc12 [Compound 218, 6-fluoro-4-(3-(3-methyl-1H-pyrazolo[4,3-b]pyridin-1-yl)-7,8-dihydro-1,6-naphthyridin-6(5H)-yl)quinazoline]
59	1950	Fc1ccc2ncnc(N3CCc4ncc(N5CCO[C@@H](c6ccccc6)C5)cc4C3)c2c1 [Compound 220, (S)-4-(6-(6-fluoroquinazolin-4-yl)-5,6,7,8-tetrahydro-1,6-naphthyridin-3-yl)-2-phenylmorpholine]
44	1490	COc1ccc2nc(O)nc(N3CCc4ncc(C(F)(F)F)cc4C3)c2c1 [Compound 221, 6-methoxy-4-(3-(trifluoromethyl)-7,8-dihydro-1,6-naphthyiridin-6(5H)-yl)quinazolin-2-ol]
50	3470	Cc1nc(N2CCc3ncc(N4CCO[C@@H](c5ccccc5)C4)cc3C2)c2cc(F)ccc2n1 [Compound 222, (S)-4-(6-(6-fluoro-2-methylquinazolin-4-yl)-5,6,7,8-tetrahydro-1,6-naphthyridin-3-yl)-2-phenylmorpholine]
65	670	Fc1ccc2ncnc(N3CCc4ncc(N5CCOC(c6ccccn6)C5)cc4C3)c2c1 (stereo not shown) [Compound 223, 4-(6-(6-fluoroquinazolin-4-yl)-5,6,7,8-tetrahydro-1,6-naphthyridin-3-yl)-2-(pyridin-2-yl)morpholine]
72	930	Cc1nc(N2CCc3ncc(N4CCOC(c5ccccn5)C4)cc3C2)c2cc(F)ccc2n1 (stereo not shown) [Compound 224, 4-(6-(6-fluoro-2-methylquinazolin-4-yl)-5,6,7,8-tetrahydro-1,6-naphthyridin-3-yl)-2-(pyridin-2-yl)morpholine]
94	70	CC1CN(c2cnc3c(c2)CN(c2ncnc4ccc(F)cc24)CC3)c2ccnn2C1 (stereo not shown) [Compound 225, 6-fluoro-4-(3-(6-methyl-6,7-dihydropyrazolo[1,5-a]pyrimidin-4(5H)-yl)-7,8-dihydro-1,6-naphthyridin-6(5H)-yl)quinazoline]
103	60	Cc1cc2n(n1)CCCN2c1cnc2c(c1)CN(c1ncnc3ccc(F)cc13)CC2 [Compound 226, 6-fluoro-4-(3-(2-methyl-6,7-dihydropyrazolo[1,5-a]pyrimidin-4(5H)-yl)-7,8-dihydro-1,6-naphthyridin-6(5H)-yl)quinazoline]
75	80	CC1CCN(c2cnc3c(c2)CN(c2ncnc4ccc(F)cc24)CC3)c2ccnn21 (stereo not shown) [Compound 227, 6-fluoro-4-(3-(7-methyl-6,7-dihydropyrazolo[1,5-a]pyrimidin-4(5H)-yl)-7,8-dihydro-1,6-naphthyridin-6(5H)-yl)quinazoline]
97	40	[2H]c1nc2c(cc1N1CCOC(C)(C)C1)CN(c1ncnc3ccc(F)cc13)CC2 [Compound 228, 4-(6-(6-fluoroquinazolin-4-yl)-5,6,7,8-tetrahydro-1,6-naphthyridin-3-yl-2-d)-2,2-dimethylmorpholine]
86	510	Fc1ccc2ncnc(N3CCc4ncc(N5CCOC(c6cccnc6)C5)cc4C3)c2c1 (stereo not shown) [Compound 229, 4-(6-(6-fluoroquinazolin-4-yl)-5,6,7,8-tetrahydro-1,6-naphthyridin-3-yl)-2-(pyridin-3-yl)morpholine]
86	500	Cc1nc(N2CCc3ncc(N4CCOC(c5cccnc5)C4)cc3C2)c2cc(F)ccc2n1 (stereo not shown) [Compound 230, 4-(6-(6-fluoro-2-methylquinazolin-4-yl)-5,6,7,8-tetrahydro-1,6-naphthyridin-3-yl)-2-(pyridin-3-yl)morpholine]
92	50	Clc1ccc2ncnc(N3CCc4ncc(C5CC5)cc4C3)c2c1 [Compound 231, 6-chloro-4-(3-cyclopropyl-7,8-dihydro-1,6-naphthyridin-6(5H)-yl)quinazoline]
77	740	Fc1ccccc1Oc1cnc2c(c1)CN(c1ncnc3ccc(Cl)cc13)CC2 [Compound 232, 6-chloro-4-(3-(2-fluorophenoxy)-7,8-dihydro-1,6-naphthyridin-6(5H)-yl)quinazoline]
84	410	CC1CN(c2ncnc3ccc(F)cc23)Cc2cc(NC3CCCC3)cnc21 (stereo not shown) [Compound 233, N-cyclopentyl-6-(6-fluoroquinazolin-4-yl)-8-methyl-5,6,7,8-tetrahydro-1,6-naphthyridin-3-amine]
86	110	CC1CN(c2ncnc3ccc(F)cc23)Cc2cc(Nc3cccnc3)cnc21 (stereo not shown) [Compound 234, 6-(6-fluoroquinazolin-4-yl)-8-methyl-N-(pyridin-3-yl)-5,6,7,8-tetrahydro-1,6-naphthyridin-3-amine]
77	630	CC1CN(c2ncnc3ccc(F)cc23)Cc2cc(N(c3cccnc3)c3cccnc3)cnc21 (stereo not shown) [Compound 235, 6-(6-fluoroquinazolin-4-yl)-8-methyl-N,N-di(pyridin-3-yl)-5,6,7,8-tetrahydro-1,6-naphthyridin-3-amine]
86	140	CC1CN(c2ncnc3ccc(F)cc23)Cc2cc(N3CCOCC3)cnc21 (stereo not shown) [Compound 236, 4-(6-(6-fluoroquinazolin-4-yl)-8-methyl-5,6,7,8-tetrahydro-1,6-naphthyridin-3-yl)morpholine]
55	1400	CC1CN(c2ncnc3ccc(F)cc23)Cc2cc(Nc3ncnc4ccc(F)cc34)cnc21 (stereo not shown) [Compound 237, 6-fluoro-N-(6-(6-fluoroquinazolin-4-yl)-8-methyl-5,6,7,8-tetrahydro-1,6-naphthyridin-3-yl)quinazolin-4-amine]
65	220	Fc1cc2ncnc(N3CCc4ncc(-n5cccn5)cc4C3)c2cc1F [Compound 238, 4-(3-(1H-pyrazol-1-yl)-7,8-dihydro-1,6-naphthyridin-6(5H)-yl)-6,7-difluoroquinazoline]
73	800	Cn1nccc1-c1cnc2c(c1)CN(c1ncnc3cc(F)c(F)cc13)CC2 [Compound 239, 6,7-difluoro-4-(3-(1-methyl-1H-pyrazol-5-yl)-7,8-dihydro-1,6-naphthyridin-6(5H)-yl)quinazoline]
79	210	Cc1noc(C)c1-c1cnc2c(c1)CN(c1ncnc3cc(F)c(F)cc13)CC2 [Compound 240, 4-(6-(6,7-difluoroquinazolin-4-yl)-5,6,7,8-tetrahydro-1,6-naphthyridin-3-yl)-3,5-dimethylisoxazole]
77	80	C[C@@H]1CN(c2cnc3c(c2)CN(c2ncnc4cc(F)c(F)cc24)CC3)CCO1 [Compound 241, (R)-4-(6-(6,7-difluoroquinazolin-4-yl)-5,6,7,8-tetrahydro-1,6-naphthyridin-3-yl)-2-methylmorpholine]
90	30	CC1(C)CN(c2cnc3c(c2)CN(c2ncnc4cc(F)c(F)cc24)CC3)CCO1 [Compound 242, 4-(6-(6,7-difluoroquinazolin-4-yl)-5,6,7,8-tetrahydro-1,6-naphthyridin-3-yl)-2,2-dimethylmorpholine]
91	70	Fc1cc2ncnc(N3CCc4ncc(Nc5cccnc5F)cc4C3)c2cc1F [Compound 243, 6-(6,7-difluoroquinazolin-4-yl)-N-(2-fluoropyridin-3-yl)-5,6,7,8-tetrahydro-1,6-naphthyridin-3-amine]
70	240	c1cnc2nc(NC3CC3)nc(N3CCc4ncc(N5CCCn6nccc65)cc4C3)c2c1 [Compound 244, N-cyclopropyl-4-(3-(6,7-dihydropyrazolo[1,5-a]pyrimidin-4(5H)-yl)-7,8-dihydro-1,6-naphthyridin-6(5H)-yl)pyrido[2,3-d]pyrimidin-2-amine]
80	220	c1cnc2nc(NC3CCOC3)nc(N3CCc4ncc(N5CCCn6nccc65)cc4C3)c2c1 (stereo not shown) [Compound 245, 4-(3-(6,7-dihydropyrazolo[1,5-a]pyrimidin-4(5H)-yl)-7,8-dihydro-1,6-naphthyridin-6(5H)-yl)-N-(tetrahydrofuran-3-yl)pyrido[2,3-d]pyrimidin-2-amine]

SMILES	Emax at 30 µM [%]	EC50 [nM]
Cc1nc2c(cc1N1CCOC(C)(C)C1)CN(c1ncnc3ccc(F)cc13)CC2 [Compound 219, 4-(6-(6-fluoroquinazolin-4-yl)-2-methyl-5,6,7,8-tetrahydro-1,6-naphthyridin-3-yl)-2,2-dimethylmorpholine]	60	1370
